Numbered stars: 1 amine (or outer) side, 2 acyl side, 3 side chain; on linkers, the order of the positions; unused ones are H or OH. Bridge positions count the residues as written; N and C are the ends. Square brackets hold non-standard residues; d marks the D form. Peptide text beside a SMILES is read from it. * marks the point of attachment. Ala(1-CH2CO2H-4-piperidyl) = N[C@@H](CC1CCN(CC(=O)O)CC1)C(=O)O; Ala(piperidin-4-yl) = O=C([C@H](CC1CCN([*:3])CC1)N[*:1])[*:2]; DOTA = O=C(O)CN1CCN(CC(=O)O)CCN(CC(=O)*)CCN(CC(=O)O)CC1; Phe(4-CH2NH2) = NCc1ccc(C[C@H](N)C(=O)O)cc1; 1Nal = N[C@@H](Cc1cccc2ccccc12)C(=O)O; 2Nal = N[C@@H](Cc1ccc2ccccc2c1)C(=O)O; NMetBuAla = CN[C@@H](CC(C)(C)C)C(=O)O; tBuAla = CC(C)(C)C[C@H](N)C(=O)O; αMeD = C[C@](N)(CC(=O)O)C(=O)O; AllylGly = C=CC[C@H](N)C(=O)O; αMeP = C[C@@]1(C(=O)O)CCCN1; NMeS = CN[C@@H](CO)C(=O)O

This experiment concerns the target T1, human DLL3 (Homo sapiens, UniProt Q9NYJ7).
T1 construct: biotin (biotinylated)
T1 sequence (Q9NYJ7 27-618): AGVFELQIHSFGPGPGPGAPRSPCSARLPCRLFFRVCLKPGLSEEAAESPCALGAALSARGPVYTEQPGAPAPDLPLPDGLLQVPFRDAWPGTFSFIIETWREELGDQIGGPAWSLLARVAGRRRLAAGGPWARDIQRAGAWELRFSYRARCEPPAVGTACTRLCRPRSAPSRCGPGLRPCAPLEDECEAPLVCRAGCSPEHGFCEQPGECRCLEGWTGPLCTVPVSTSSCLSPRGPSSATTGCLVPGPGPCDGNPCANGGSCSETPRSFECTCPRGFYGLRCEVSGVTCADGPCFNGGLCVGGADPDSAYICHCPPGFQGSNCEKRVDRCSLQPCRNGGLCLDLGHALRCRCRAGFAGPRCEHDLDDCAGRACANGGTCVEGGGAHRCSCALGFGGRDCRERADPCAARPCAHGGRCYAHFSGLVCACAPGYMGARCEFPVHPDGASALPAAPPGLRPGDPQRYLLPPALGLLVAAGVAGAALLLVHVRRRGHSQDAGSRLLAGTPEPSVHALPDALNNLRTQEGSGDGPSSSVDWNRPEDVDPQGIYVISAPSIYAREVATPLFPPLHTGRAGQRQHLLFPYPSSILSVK
Briefly: Affinity determination by Surface Plasmon Resonance (SPR), Biacore, 1:1 binding model. To be noted: biotinylated human DLL3 on streptavidin chip, 25° C.; NB = nonbinding. The essentials: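 SPR with biotinylated human DLL3 captured on a streptavidin chip, with a reference surface subtracted. Samples were injected at several concentrations at 100 μL/min in phosphate buffer with 137 mM NaCl, 2.7 mM KCl, 0.05% P20 and 2% DMSO. Kinetic and affinity constants came from a 1:1 binding fit.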
As for `CC(=O)N[C@@H](CO)C(=O)N[C@@H](CC(=O)O)C(=O)N[C@H]1C/C=C/C[C@@H](C(=O)N2CCC[C@@]2(C)C(=O)N[C@@H](Cc2ccccc2)C(=O)N[C@@H](CC(=O)O)C(=O)N[C@H](CCCCNC(=O)CN2CCN(CC(=O)O)CCN(CC(=O)O)CCN(CC(=O)O)CC2)C(N)=O)NC(=O)[C@H](CC(N)=O)NC(=O)[C@H](Cc2ccc3ccccc3c2)NC(=O)[C@H](CC2CCNCC2)NC(=O)[C@H](CC(C)(C)C)N(C)C(=O)[C@H](Cc2cccc3ccccc23)NC1=O` [compound 189, Ac-S-D-AllyG(4)-(1Nal)-(NMe-Tba)-[3-(4-piperidinyl)-Ala]-(2Nal)-N-AllyG(4)-(aMe-P)-F -D-[D-Lys(DOTA)]-NH2] (Ac-SD[AllylGly][1Nal][NMetBuAla][Ala(piperidin-4-yl)][2Nal]N[AllylGly][αMeP]FD[dK](DOTA)-NH2; staple (E) 3-9), the equilibrium dissociation constant (Kd) was > 30 nM. The same measure, in the same setting: with `CC(=O)N[C@@H](CC1CCNCC1)C(=O)N(C)[C@@H](CO)C(=O)N[C@@H](CC(=O)O)C(=O)N[C@H]1C/C=C/C[C@@H](C(=O)N2CCC[C@@]2(C)C(=O)N[C@@H](Cc2ccccc2)C(=O)N[C@@H](CC(=O)O)C(N)=O)NC(=O)[C@H](CC(N)=O)NC(=O)[C@H](Cc2ccc3ccccc3c2)NC(=O)[C@H](Cc2ccc(CNC(=O)CN3CCN(CC(=O)O)CCN(CC(=O)O)CCN(CC(=O)O)CC3)cc2)NC(=O)[C@H](CC(C)(C)C)NC(=O)[C@H](Cc2cccc3ccccc23)NC1=O` [compound 190, Ac-[3-(4-piperidinyl)-Ala]-(NMe-Ser)-D-AllyG(4)-(1Nal)-(t-Bu-Ala)-[PAF(DOTA)]-(2Nal)-N-AllyG(4)-(aMe-P)-F-D-CONH2] (Ac-[Ala(piperidin-4-yl)][NMeS]D[AllylGly][1Nal][tBuAla][Phe(4-CH2NH2)](DOTA)[2Nal]N[AllylGly][αMeP]FD-NH2; staple (E) 4-10) the figure was 1.51 nM. Molecule `CC(=O)N[C@@H](CC1CCNCC1)C(=O)N[C@@H](CO)C(=O)N[C@@](C)(CC(=O)O)C(=O)N[C@H]1C/C=C/C[C@@H](C(=O)N2CCC[C@@]2(C)C(=O)N[C@@H](Cc2ccccc2)C(=O)N[C@@H](CC(=O)O)C(N)=O)NC(=O)[C@H](CC(N)=O)NC(=O)[C@H](Cc2ccc3ccccc3c2)NC(=O)[C@H](Cc2ccc(CNC(=O)CN3CCN(CC(=O)O)CCN(CC(=O)O)CCN(CC(=O)O)CC3)cc2)NC(=O)[C@H](CC(C)(C)C)NC(=O)[C@H](Cc2cccc3ccccc23)NC1=O` [compound 194, Ac-[3-(4-piperidinyl)-Ala]-S-(aMe-Asp)-AllyG(4)-(1Nal)-(t-Bu-Ala)-[PAF(DOTA)]-(2Nal)-N-AllyG(4)-(aMe-P)-F-D-CONH2] (Ac-[Ala(piperidin-4-yl)]S[αMeD][AllylGly][1Nal][tBuAla][Phe(4-CH2NH2)](DOTA)[2Nal]N[AllylGly][αMeP]FD-NH2; staple (E) 4-10) gave a Kd of 0.27 nM.

Molecule `C[C@@H](NC(=O)CN1CCN(CC(=O)O)CCN(CC(=O)O)CCN(CC(=O)O)CC1)C(=O)N[C@@H](CO)C(=O)N[C@@](C)(CC(=O)O)C(=O)N[C@H]1C/C=C/C[C@@H](C(=O)N2CCC[C@@]2(C)C(=O)N[C@@H](Cc2ccccc2)C(=O)N[C@@H](CC(=O)O)C(N)=O)NC(=O)[C@H](CC(N)=O)NC(=O)[C@H](Cc2ccc3ccccc3c2)NC(=O)[C@H](CC2CCNCC2)NC(=O)[C@H](CC(C)(C)C)NC(=O)[C@H](Cc2cccc3ccccc23)NC1=O` [compound 197, DOTA-(D-Ala)-S-(aMe-Asp)-AllyG(4)-(1Nal)-(t-Bu-Ala)-[3-(4-piperidinyl)-Ala]-(2Nal)-N-AllyG(4)-(aMe-P)-F-D-CONH2] ({DOTA}-[dA]S[αMeD][AllylGly][1Nal][tBuAla][Ala(piperidin-4-yl)][2Nal]N[AllylGly][αMeP]FD-NH2; staple (E) 4-10) registered an equilibrium dissociation constant (Kd) of 1.66 nM. With `CC(=O)N[C@@H](CC1CCNCC1)C(=O)N[C@@H](CO)C(=O)N[C@@H](CC(=O)O)C(=O)N[C@H]1C/C=C\C[C@@H](C(=O)N2CCC[C@@]2(C)C(=O)N[C@@H](Cc2ccccc2)C(=O)N[C@@H](CC(=O)O)C(N)=O)NC(=O)[C@H](CC(N)=O)NC(=O)[C@H](Cc2ccc3ccccc3c2)NC(=O)[C@H](Cc2ccc(CNC(=O)CN3CCN(CC(=O)O)CCN(CC(=O)O)CCN(CC(=O)O)CC3)cc2)NC(=O)[C@H](CC(C)(C)C)NC(=O)[C@H](Cc2cccc3ccccc23)NC1=O` [compound 198, Ac-(D-Ala)-S-D-AllyG(4)-(1Nal)-(t-Bu-Ala)-[PAF(DOTA)]-(2Nal)-N-AllyG(4)-(aMe-P)-F-D-CONH2] (Ac-[Ala(piperidin-4-yl)]SD[AllylGly][1Nal][tBuAla][Phe(4-CH2NH2)](DOTA)[2Nal]N[AllylGly][αMeP]FD-NH2; staple (Z) 4-10), the “SPR KD (nM)” value is “heterogenous binding”. The molecule `CC(=O)N[C@@H](CC1CCNCC1)C(=O)N[C@@H](CO)C(=O)N[C@@H](CC(=O)O)C(=O)N[C@H]1C/C=C/C[C@@H](C(=O)N2CCC[C@@]2(C)C(=O)N[C@@H](Cc2ccccc2)C(=O)N[C@@H](CC(=O)O)C(N)=O)NC(=O)[C@H](CC(N)=O)NC(=O)[C@H](Cc2ccc3ccccc3c2)NC(=O)[C@H](Cc2ccc(CNC(=O)CN3CCN(CC(=O)O)CCN(CC(=O)O)CCN(CC(=O)O)CC3)cc2)NC(=O)[C@H](CC(C)(C)C)NC(=O)[C@H](Cc2cccc3ccccc23)NC1=O` [compound 199, Ac-(D-Ala)-S-D-AllyG(4)-(1Nal)-(t-Bu-Ala)-[PAF(DOTA)]-(2Nal)-N-AllyG(4)-(aMe-P)-F-D-CONH2] (Ac-[Ala(piperidin-4-yl)]SD[AllylGly][1Nal][tBuAla][Phe(4-CH2NH2)](DOTA)[2Nal]N[AllylGly][αMeP]FD-NH2; staple (E) 4-10) had a Kd of 0.21 nM.

The molecule `CC(=O)N[C@@H](CC1CCNCC1)C(=O)N[C@@H](CO)C(=O)N[C@@H](CC(=O)O)C(=O)N[C@H]1C/C=C\C[C@@H](C(=O)N2CCC[C@@]2(C)C(=O)N[C@@H](Cc2ccccc2)C(=O)N[C@@H](CC(=O)O)C(N)=O)NC(=O)[C@H](CC(N)=O)NC(=O)[C@H](Cc2ccc3ccccc3c2)NC(=O)[C@H](Cc2ccc(CNC(=O)CN3CCN(CC(=O)O)CCN(CC(=O)O)CCN(CC(=O)O)CC3)cc2)NC(=O)[C@H](CC(C)(C)C)NC(=O)[C@H](Cc2cccc3ccccc23)NC1=O` [compound 201, Ac-[3-(4-piperidinyl)-Ala]-S-D-AllyG(4)-(1Nal)-(t-Bu-Ala)-[PAF(DOTA)]-(2Nal)-N-AllyG(4)-(aMe-P)-F-D-CONH2] (Ac-[Ala(piperidin-4-yl)]SD[AllylGly][1Nal][tBuAla][Phe(4-CH2NH2)](DOTA)[2Nal]N[AllylGly][αMeP]FD-NH2; staple (Z) 4-10) yielded a Kd of 14.6 nM. Same read-out and setting: with `CC(=O)N[C@@H](CC1CCNCC1)C(=O)N[C@@H](CO)C(=O)N[C@@H](CC(=O)O)C(=O)N[C@H]1C/C=C/C[C@@H](C(=O)N2CCC[C@@]2(C)C(=O)N[C@@H](Cc2ccccc2)C(=O)N[C@@H](CC(=O)O)C(N)=O)NC(=O)[C@H](CC(N)=O)NC(=O)[C@H](Cc2ccc3ccccc3c2)NC(=O)[C@H](Cc2ccc(CNC(=O)CN3CCN(CC(=O)O)CCN(CC(=O)O)CCN(CC(=O)O)CC3)cc2)NC(=O)[C@H](CC(C)(C)C)NC(=O)[C@H](Cc2cccc3ccccc23)NC1=O` [compound 202, Ac-[3-(4-piperidinyl)-Ala]-S-D-AllyG(4)-(1Nal)-(t-Bu-Ala)-[PAF(DOTA)]-(2Nal)-N-AllyG(4)-(aMe-P)-F-D-CONH2] (Ac-[Ala(piperidin-4-yl)]SD[AllylGly][1Nal][tBuAla][Phe(4-CH2NH2)](DOTA)[2Nal]N[AllylGly][αMeP]FD-NH2; staple (E) 4-10) the figure was 0.53 nM; with `CC(=O)N[C@H](C)C(=O)N[C@@H](CO)C(=O)N[C@@H](CC(=O)O)C(=O)N[C@H]1C/C=C/C[C@@H](C(=O)N2CCC[C@@]2(C)C(=O)N[C@@H](Cc2ccccc2)C(=O)N[C@@H](CC(=O)O)C(N)=O)NC(=O)[C@H](CC(N)=O)NC(=O)[C@H](Cc2ccc3ccccc3c2)NC(=O)[C@H](Cc2ccc(CNC(=O)CN3CCN(CC(=O)O)CCN(CC(=O)O)CCN(CC(=O)O)CC3)cc2)NC(=O)[C@H](CC2CCNCC2)NC(=O)[C@H](Cc2cccc3ccccc23)NC1=O` [compound 204, Ac-(D-Ala)-S-D-AllyG(4)-(1Nal)-[3-(4-piperidinyl)-Ala]-[PAF(DOTA)]-(2Nal)-N-AllyG(4)-(aMe-P)-F-D-CONH2] (Ac-[dA]SD[AllylGly][1Nal][Ala(piperidin-4-yl)][Phe(4-CH2NH2)](DOTA)[2Nal]N[AllylGly][αMeP]FD-NH2; staple (E) 4-10), 1.3 nM.

`CC(=O)N[C@@H](CC1CCN(CC(=O)O)CC1)C(=O)N[C@@H](CO)C(=O)N[C@@](C)(CC(=O)O)C(=O)N[C@H]1C/C=C\C[C@@H](C(=O)N2CCC[C@@]2(C)C(=O)N[C@@H](Cc2ccccc2)C(=O)N[C@@H](CC(=O)O)C(N)=O)NC(=O)[C@H](CC(N)=O)NC(=O)[C@H](Cc2ccc3ccccc3c2)NC(=O)[C@H](Cc2ccc(CNC(=O)CN3CCN(CC(=O)O)CCN(CC(=O)O)CCN(CC(=O)O)CC3)cc2)NC(=O)[C@H](CC(C)(C)C)NC(=O)[C@H](Cc2cccc3ccccc23)NC1=O` [compound 207, Ac-[3-(piperidinyl-4-CH2CO2H)-Ala]-S-(aMe-Asp)-AllyG(4)-(1Nal)-(t-Bu-Ala)-[PAF(DOTA)]-(2Nal)-N-AllyG(4)-(aMe-P)-F-D-CONH2] (Ac-[Ala(1-CH2CO2H-4-piperidyl)]S[αMeD][AllylGly][1Nal][tBuAla][Phe(4-CH2NH2)](DOTA)[2Nal]N[AllylGly][αMeP]FD-NH2; staple (Z) 4-10) yielded a Kd of 31 nM. Compared with the last molecule, the Kd is about 24-fold higher.

In general, Kd refers to the constant that tells how readily two partners part at equilibrium. Higher therefore signals a looser complex.

Values taken from patent US20250186541A1, “DLL3 TARGETING PEPTIDES AND CONSTRUCTS THEREOF” (MARIANA ONCOLOGY INC., priority 2023, published 2025).
